Test results: US20180318383A1, “PEPTIDE HAVING NEURONAL LOSS PREVENTION AND REGENERATION EFFECTS, AND COMPOSITION CONTAINING SAME” (GEMVAX & KAEL CO., LTD., priority 2015, published 2018)

How the values were obtained:
[1] = test system: AD transgenic mice (3XTg-AD); assay: Y-maze test; format: in vivo
Description: (§1) To test the efficacy of PEP1 on AD, AD transgenic mice (3XTg-AD) were purchased from Jackson Laboratory. Genetic characteristics of the transgenic mice are as follows: B6; 129-Psen1tm1Mpm Tg(APPSwe, tauP301L)1Lfa/Mmjax. […] One week after mice were confirmed as pregnant, new mice were delivered and weaned for 3 weeks. Two weeks later, mature mice were obtained.
(§2) During the preliminary breeding and the entire period of the experiment, a temperature was maintained at 23±2° C. and a relative humidity was maintained at 60±10%, and then the mice were raised under a 12-hour dark/light cycle. Experimental animals were divided into five groups, and each group included 10 animals. The divided experimental groups are as follows. […]
(§3) The PEP1, physiological saline, donepezil and scramble peptide were subcutaneously injected at each concentration three times a week for two months from the age of 12 months, and then two months after the injection, cognitive/memory behavior tests (passive avoidance test and Y maze test) were performed to examine a degree of improvement in cognitive function and memory function. After the brain was extracted to separate the hippocampus, the amounts of amyloid beta in the hippocampus and the whole brain, and the amounts of an amyloid beta oligomer and NFT generated by tau hyperphosphorylation were determined by western blotting and immunostaining. […]

NSCs [2] = assay: ROS production in NSCs (DCFH-DA staining); format: cell-based, rat; conditions: 20 μM Aβ25-35 + PEP1, 48 hours, DCF fluorescence
Description: NSCs were treated with 20 μM Aβ25-30 for 48 hours and stained with DCFH-DA for 15 minutes to measure ROS. NSCs were treated with a varying concentration of PEP1 and 20 μM Aβ25-30 for 48 hours. After culturing, the cells were stained with 10 μM DCFH-DA at 37° C. for 15 minutes and washed with PBS three times. DCFH-DA freely passed through the cell membrane, and then was degraded into DCF by an esterase present in the cells. Therefore, a DCF fluorescent intensity refers to an intracellular hydrogen peroxide (ROS) level. DCF accumulation was evaluated using a reader according to an absorbance at 490 nm and a reference absorbance at 690 nm. Flow cytometry was observed and analyzed using an Accuri C6 flow cytometer.

[3] = test system: AD transgenic mice (3XTg-AD); assay: Passive avoidance test; format: in vivo
Description: as §1, §2
as §3, with “[…],” for “scramble peptide were subcutaneously injected at each concentration three times a week for two months from the age of 12 months,”

NSCs [4] = assay: Cell migration assay (QCM-24-well kit); format: cell-based, rat; conditions: 20 μM Aβ25-35 + PEP1 1, 10, 50 μM
Description: A cell migration assay was carried out using a QCM-24-well cell migration kit. Briefly, 20 μM Aβ25-30 and each concentration of PEP1 (1, 10 or 50 μM) were added to a lower chamber, and 3×10^5 NSCs were cultured in an upper chamber at 37° C. for 24 hours. NSCs migrated toward the membrane, and after staining to observe the number of migrating cells, absorbance was measured at 560 nm.

[5] = severe AD models, 20-month-old or older 3XTg-AD mice, PEP1 1 mg/kg s.c., vs physiological saline

EARPALLTSRLRFIPK (homo sapiens) [PEP1, hTERT-derived peptide consisting of 16 amino acids, telomerase location [611-626]]
behavioral judgment (Y-maze test) ([1]; 3XTg-AD mice, treated from age 12 months, vs control and Donepezil): excellent behavioral judgment
ability to select a new path (spontaneous alteration (%)), Y-maze test [1, 5]: increased
amount of ROS induced by Aβ25-35 (NSCs [2]): significantly reduces
avoidance ability (passive avoidance test) ([3]; 3XTg-AD mice, treated from age 12 months, tested two months after injection, vs control and Donepezil): excellent avoidance ability
time and frequency of staying in the bright room (passive avoidance test) [3, 5]: increased
migration ability of NSCs (NSCs [4]): effectively restored migration
